From patent publication US20120225417A1, “Methods, Compositions and Kits for the Evaluation and Preservation of Sperm” (I'Alliance Boviteq Inc., priority 2011, published 2012)

Legend:
Type in all cases: biochemical
[1] = tested on: 3′-5′ cAMP-PDE activity in bovine spermatozoa; assay: 3′-5′ cAMP-PDE assay with family-specific PDE inhibitors in bovine spermatozoa; conditions: for Percentage of family specific sensitive PDE activity, 3 h Egg yolk: bovine spermatozoa after 3 h in egg yolk based cryoprotectant at 18° C.; for Percentage of family specific sensitive PDE activity, 3 h Liquid semen: bovine spermatozoa after 3 h in liquid semen extender at 18° C.; for Percentage of family specific sensitive PDE activity, 3 h 4° C.: bovine spermatozoa after 3 h in seminal plasma at 4° C.; for Percentage of family specific sensitive PDE activity, 3 h 18° C.: bovine spermatozoa after 3 h in seminal plasma at 18° C.; for Percentage of family specific sensitive PDE activity, Fresh: bovine spermatozoa rapidly after ejaculation (0 h); for Percentage of total PDE activity sensitive to the inhibitor: cilostamide 10 μM, rolipram 10 μM, papaverine 400 nM (FIG. 12B); for Percentage of sensitive PDE activity, Cryo (B): cryopreserved bovine spermatozoa; for Percentage of sensitive PDE activity, Cryo (B) / Percentage of sensitive PDE activity, Fresh (A): Cil 10 μM, Rol 10 μM, Papa 400 nM; for Percentage of sensitive PDE activity, Fresh (A): freshly ejaculated bovine spermatozoa
Protocol: The semen was obtained from different Holstein bulls. The fresh ejaculated semen was kept in an insulated thermos flask, at 18° C., during transportation to the laboratory and processed within 3 hours after collection. The cryopreserved semen was obtained at the Centre d'Insémination […] du Québec (CIAQ) […]. The cryopreserved straws of semen were prepared according to CIAQ procedures. […] After cutting one end of the straw the semen was collected in a 15 ml falcon while cutting the other end. From this point fresh and cryopreserved semen were processed similarly. Approximately 50 μL of the semen was added to 5 mL of Talp-BSA medium in a 15 mL falcon tube to wash the spermatozoa. After centrifugation (280×g, 10 min, room temperature), the remaining pellet of approximately 100 μL was resuspended in Talp-BSA medium (500 μl for the fresh and 200 μl for two straws) to reach a concentration of 1×10^6 cells/10 μL. The samples were then vortex-agitated for 30 sec and kept on the ice until ready to run the assay. The concentration of sperm cells was measured according to hemacytometer method. The cAMP enzymatic assay (PDE assay) was conducted as previously described ([…]. et al., (2006). […] J. et al., (1979). Adv Cyclic Nucleotide Res 10, 69-92) with minor modifications. […] Measurements were also performed in the presence of PDE inhibitors: […] Cilostamide and Rolipram were purchased from Biomol. […] Each PDE assay was performed in triplicate for each experiment and each experiment was repeated at least three times. As described ([…]. et al., (2009). […] IBMX-sensitive PDE5 and PDE6 and IBMX-insensitive PDE9 activities are absent from these groups because cGMP is the specific substrate and then are not detected in the cAMP-PDE assay. […] J Dairy Sci 92, 3757-3765; […]., et al. (2007). Endocrinology 148, 1858-1867; Siuciak, J. A. et al., (2006). Neuropharmacology 51, 386-396).

[2] = tested on: 3′-5′ cAMP-PDE activity in human seminal plasma; assay: 3′-5′ cAMP-PDE assay with family-specific PDE inhibitors in human seminal plasma; conditions: fresh human seminal plasma; Rolipram 10 μM, Papaverine 400 nM (FIG. 19)
Protocol: A certain amount of complete ejaculate was kept to isolate spermatozoa from seminal plasma. This portion was centrifuged at 400×g during 10 minutes at room temperature to gently pull down spermatozoa. Supernatant was transferred and centrifuged again at 6 000×g at 4° C. during 20 minutes to pull down any remaining spermatozoa. Supernatant was then transferred and centrifuged at 6 000×g at 4° C. during 20 minutes to remove any remaining debris. SP samples were kept on ice until used for PDE assay and stored at -80° C. for further characterization. The cAMP enzymatic assay (PDE assay) was conducted as previously described ([…]. et al., (2006). BMC developmental biology 6, 47). […] J. et al., (1979). Adv Cyclic Nucleotide Res 10, 69-92) with minor modifications. […] Measurements were also performed in the presence of PDE inhibitors: […] Cilostamide and Rolipram were purchased from Biomol. […] Each PDE assay was performed in triplicate for each experiment and each experiment was repeated at least three times. As described ([…]. et al., (2009). […] IBMX-sensitive PDE5 and PDE6 and IBMX-insensitive PDE9 activities are absent from these groups because cGMP is the specific substrate and then are not detected in the cAMP-PDE assay. […] J Dairy Sci 92, 3757-3765; […]., et al. (2007). Endocrinology 148, 1858-1867; Siuciak, J. A. et al., (2006). Neuropharmacology 51, 386-396).

[3] = tested on: 3′-5′ cAMP-PDE activity in bovine testis, caput, cauda and seminal vesicles homogenates; assay: 3′-5′ cAMP-PDE assay in bovine testis, caput, cauda and seminal vesicles homogenates; conditions: Rol 10 μM, Papa 400 nM (FIG. 3)
Protocol: After thoroughly vortex-agitating for about one minute, samples were centrifuged at 10 000×g for 4 minutes at room temperature. Supernatant fluid was collected and diluted in different volumes of hypotonic buffer depending on the tissue. Testis, caput and cauda homogenates were diluted in 1 mL of hypotonic buffer while seminal vesicle homogenates were diluted in 2 mL of hypotonic buffer. Homogenates were kept on ice until subjected to PDE assay. The cAMP enzymatic assay (PDE assay) was conducted as previously described ([…]. et al., (2006). BMC developmental biology 6, 47). […] J. et al., (1979). Adv Cyclic Nucleotide Res 10, 69-92) with minor modifications. […] Measurements were also performed in the presence of PDE inhibitors: […] Cilostamide and Rolipram were purchased from Biomol. […] Each PDE assay was performed in triplicate for each experiment and each experiment was repeated at least three times. As described ([…]. et al., (2009). […] IBMX-sensitive PDE5 and PDE6 and IBMX-insensitive PDE9 activities are absent from these groups because cGMP is the specific substrate and then are not detected in the cAMP-PDE assay. […] J Dairy Sci 92, 3757-3765; […]., et al. (2007). Endocrinology 148, 1858-1867; Siuciak, J. A. et al., (2006). Neuropharmacology 51, 386-396).

[4] = bovine spermatozoa, 1 μM cAMP, IBMX 1 mM

Row | Structure (SMILES) | Percentage of family specific sensitive PDE activity, 3 h Egg yolk [1] | Percentage of family specific sensitive PDE activity, 3 h Liquid semen [1] | Percentage of family specific sensitive PDE activity, 3 h 4° C. [1] | Percentage of family specific sensitive PDE activity, 3 h 18° C. [1] | Percentage of family specific sensitive PDE activity, Fresh [1] | Percentage of total PDE activity that is IBMX-insensitive (PDE8) [1, 4] | Percentage of total PDE activity sensitive to the inhibitor [1, 4] | Percentage of sensitive PDE activity, Cryo (B) ([1]; IBMX 1 mM) | Percentage of sensitive PDE activity, Fresh (A) ([1]; IBMX 1 mM) | Inhibitor-sensitive PDE activity in human seminal plasma (in words) [2] | Inhibitor-sensitive PDE activity in bovine male reproductive tissues (in words) [3] | Increase of the inhibited proportion of cAMP-PDE activity relative to papaverine ([1]; freshly ejaculated bovine spermatozoa (FIG. 21))
1 | CC(C)Cn1c(=O)n(C)c(=O)c2[nH]cnc21 [IBMX, 3-isobutyl-1-methylxanthine] | 96% | 96% | 96% | 95% | 95% | 8% | 92% | 96% | 94% | – | – | –
2 | COc1ccc(C2CNC(=O)C2)cc1OC1CCCC1 (stereo not shown) [Rolipram] | 18% | 11% | 12% | 9% | 11% | – | 11% | 10% | 12% | high | highly functional | –
3 | OCCN(CCO)c1nc(N2CCCCC2)c2nc(N(CCO)CCO)nc(N3CCCCC3)c2n1 [dipyridamol, dipyridamole] | – | – | – | – | – | – | – | – | – | – | – | 10%
4 | CN(C(=O)CCCOc1ccc2[nH]c(=O)ccc2c1)C1CCCCC1 [Cilostamide] | 24% | 7% | 11% | 20% | 13% | – | 9% | 5% | 14% | – | – | –
